In test [1] the target is T1, GPR43 (Homo sapiens, UniProt O15552).
T1 construct: expressed in transfected cells
T1 sequence (O15552 1-330): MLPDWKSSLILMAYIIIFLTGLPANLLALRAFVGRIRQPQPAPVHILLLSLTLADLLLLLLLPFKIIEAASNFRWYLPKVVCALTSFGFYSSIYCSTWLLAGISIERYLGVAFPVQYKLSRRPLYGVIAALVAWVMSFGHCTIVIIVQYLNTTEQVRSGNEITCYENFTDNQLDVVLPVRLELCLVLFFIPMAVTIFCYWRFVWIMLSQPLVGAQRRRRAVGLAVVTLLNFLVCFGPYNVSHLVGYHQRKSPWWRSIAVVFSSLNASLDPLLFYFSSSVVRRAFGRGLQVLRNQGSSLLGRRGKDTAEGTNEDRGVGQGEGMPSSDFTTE
The test can be described thus: Calcium mobilization assay without probenecid. The format is cell-based. The following applies: GPR43 stably expressing cells, triggered with sodium acetate at EC80, read-out: GPR43 assay without probenicid IC50. On the procedure:
The following assay can be used for determination of GPR43 activation. The assay measures intracellular calcium release induced by activation of GPR43. On day 1, GPR43 stably expressing cells were detached with mild trypsinization (Trypsin, 0.25% with EDTA 4Na, 5× diluted in PBS) centrifuged at 1000 rpm for 5 min and resuspended at 6.000 cells/25 μL medium (DMEM supplemented with 10% FBS, 10 μg/mL puromycin and 1% Pen/Strep). The cells were distributed in poly-D-lysine coated 384 well plates (black with clear bottom, 25 μL/well) and incubated overnight at 37° C. 10% CO2. On day 2, 25 μL of a fluorescent Ca^2+ indicator (Calcium 4 assay; Molecular Devices) was added on top of the cells and incubated for 2 h at 37° C. Subsequently, compounds at increasing concentration (10 μL/well) were added to the plate and incubated for 15 min at 37° C. Finally the cells were triggered with sodium acetate at EC80 concentration (concentration which gives 80% of the activity of the GPR43) and the Ca-flux was measured simultaneously to the trigger injection on a fluorescence plate reader (FlexStation3), this measures the antagonist activity of the compounds. To measure agonist activity of the compounds, compound was added to the well and the Ca-flux was measured simultaneously to the injection of compound.

The target of test [2] is T1, GPR43. The test can be described thus: Calcium mobilization assay with probenecid. The format is cell-based. The conditions noted are these: GPR43 stably expressing cells; triggered with sodium acetate at EC80; 2.5 mM probenecid; read-out: GPR43 assay with probenicid IC50. Summed up:
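[…] being added at rising concentrations to a GPR43 stable line. Before this, cells were dye-loaded (Calcium 4 with 2.5 mM probenecid) for 2 h at 37 °C after overnight plating.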
(In general: Calcium assays in cells follow changes in intracellular calcium, usually with a dye or a luminescent sensor.)

From patent US8759334B2, “Compounds useful for the treatment of metabolic and inflammatory diseases” (Galapagos NV, priority 2011, dated 2014) come the findings set out here.

pIC50: −log10 of the molar value.

What is called pIC50 is the IC50 on a negative log10 scale, so that one unit is a factor of ten. Consider `Cc1cc(C)cc(CC(=O)N2CCC2(C)C(=O)N(CC(=O)O)Cc2cccc(C)c2)c1` (stereo not shown) [Compound 59, [{1-[2-(3,5-Dimethyl-phenyl)-acetyl]-2-methyl-azetidine-2-carbonyl}-(3-methyl-benzyl)-amino]-acetic acid], for which the pIC50 on GPR43 [1] and at GPR43 [2] was less than 6.00 each time.
As to `Cc1cc(C)cc(CC(=O)N2CCC2(C)C(=O)N(CC(=O)NS(C)(=O)=O)Cc2ccc(Cl)cc2)c1` (stereo not shown) [Compound 95, 1-[2-(3,5-Dimethyl-phenyl)-acetyl]-2-methyl-azetidine-2-carboxylic acid (4-chloro-benzyl)-(2-methanesulfonylamino-2-oxo-ethyl)-amide], the pIC50 at GPR43 [1] was 6.00 to 6.30; on GPR43 [2], less than 6.00.
In the case of `CN(Cc1ccc(Cl)cc1)C(=O)C1(C)CCN1C(=O)c1csc2ccccc12` (stereo not shown) [Compound 98, 1-(Benzo[b]thiophene-3-carbonyl)-2-methyl-azetidine-2-carboxylic acid (4-chloro-benzyl)-methyl-amide], the pIC50 at GPR43 [1] and at GPR43 [2] was 6.30 to 7.00 in each case.
In the case of `COC(=O)CCCN(Cc1ccc(Cl)cc1)C(=O)C1(C)CCN1C(=O)Cc1cc(C)cc(C)c1` (stereo not shown) [Compound 63, 4-((4-Chloro-benzyl)-{1-[2-(3,5-dimethyl-phenyl)-acetyl]-2-methyl-azetidine-2-carbonyl}-amino)-butyric acid methyl ester], the pIC50 on GPR43 [1] and at GPR43 [2] was 6.30 to 7.00 in each case.
Regarding `CN(Cc1ccc(Cl)cc1)C(=O)C1(C)CCN1C(=O)Cc1ccccc1I` (stereo not shown) [Compound 17, 1-[2-(2-Iodo-phenyl)-acetyl]-2-methyl-azetidine-2-carboxylic acid (4-chloro-benzyl)-methyl-amide], the pIC50 on GPR43 [1] and on GPR43 [2] was less than 6.00 each time.
Turning to `Cc1cc(C)cc(CC(=O)N2CCC2(C)C(=O)N(C)Cc2ccc(Br)cc2)c1` (stereo not shown) [Compound 30, 1-[2-(3,5-Dimethyl-phenyl)-acetyl]-2-methyl-azetidine-2-carboxylic acid (4-bromo-benzyl)-methyl-amide], the pIC50 on GPR43 [1] and on GPR43 [2] was less than 6.00 in each case.
Take `Cc1cc(C)cc(CC(=O)N2CCC2(C)C(=O)N(CC#N)Cc2ccc(Cl)cc2)c1` (stereo not shown) [Compound 68, 1-[2-(3,5-dimethyl-phenyl)-acetyl]-2-methyl-azetidine-2-carboxylic acid (4-chloro-benzyl)-cyanomethyl-amide]: the pIC50 at GPR43 [1] and on GPR43 [2] was 6.30 to 7.00 throughout.
In the case of `CC1(C(=O)NCc2ccc(C(F)(F)F)cc2)CCN1C(=O)Cc1ccc(Cl)cc1Cl` (stereo not shown) [Compound 44, 1-[2-(2,4-Dichloro-phenyl)-acetyl]-2-methyl-azetidine-2-carboxylic acid 4-trifluoromethyl-benzylamide], the pIC50 on GPR43 [1] and at GPR43 [2] was less than 6.00 each time.
In the case of `Cc1cc(C)cc(CC(=O)N2CCC2(C)C(=O)N(CCO)Cc2ccc(Cl)cc2)c1` (stereo not shown) [Compound 47, 1-[2-(3,5-Dimethyl-phenyl)-acetyl]-2-methyl-azetidine-2-carboxylic acid (4-chloro-benzyl)-(2-hydroxy-ethyl)-amide], the pIC50 on GPR43 [1] was 6.30 to 7.00.
For the compound `COC(=O)CCN(Cc1ccc(Cl)cc1)C(=O)C1(C)CCN1C(=O)Cc1cc(C)cc(C)c1` (stereo not shown) [Compound 62, 3-((4-Chloro-benzyl)-{1-[2-(3,5-dimethyl-phenyl)-acetyl]-2-methyl-azetidine-2-carbonyl}-amino)-propionic acid methyl ester], on GPR43 [1], the negative-log IC50 (pIC50) was 6.00 to 6.30.
Take `CN(Cc1ccc(Cl)cc1)C(=O)C1(C)CCN1C(=O)Cc1csc2ccc(Cl)cc12` (stereo not shown) [Compound 92, 1-[2-(5-Chloro-benzo[b]thiophen-3-yl)-acetyl]-2-methyl-azetidine-2-carboxylic acid (4-chloro-benzyl)-methyl-amide]: at GPR43 [1], the pIC50 is less than 6.00.
On the same count and under the same terms, as for `CN(Cc1ccc(Cl)cc1)C(=O)C1(C)CCN1C(=O)Cc1csc2ccccc12` (stereo not shown) [Compound 13, 1-(2-Benzo[b]thiophen-3-yl-acetyl)-2-methyl-azetidine-2-carboxylic acid (4-chloro-benzyl)-methyl-amide], the figure is 6.30 to 7.00.
`Cc1cc(C)cc(CC(=O)N2CCC2(C)C(=O)N(C)Cc2ccc(Cl)cc2)c1` (stereo not shown) [Compound 3, 1-[2-(3,5-Dimethyl-phenyl)-acetyl]-2-methyl-azetidine-2-carboxylic acid (4-chloro-benzyl)-methyl-amide]: the pIC50 at GPR43 [1] was less than 6.00.
Consider `CN(Cc1ccc(Cl)cc1)C(=O)C1(C)CCN1C(=O)Cc1ccc2ccccc2c1` (stereo not shown) [Compound 14, 2-Methyl-1-(2-naphthalen-2-yl-acetyl)-azetidine-2-carboxylic acid (4-chloro-benzyl)-methyl-amide], for which the pIC50 at GPR43 [1] is 6.00 to 6.30.
The same measure, in the same setting: as for `CC1(C(=O)N(CCCO)Cc2ccc(Cl)cc2)CCN1C(=O)Cc1csc2ccccc12` (stereo not shown) [Compound 70, 1-(2-Benzo[b]thiophen-3-yl-acetyl)-2-methyl-azetidine-2-carboxylic acid (4-chloro-benzyl)-(3-hydroxy-propyl)-amide], the figure is 6.30 to 7.00; as for `CC1(C(=O)NCc2ccc(Cl)cc2)CCN1C(=O)Cc1ccc(Cl)cc1Cl` (stereo not shown) [Compound 1, 1-[2-(2,4-Dichloro-phenyl)-acetyl]-2-methyl-azetidine-2-carboxylic acid 4-chloro-benzylamide], 6.30 to 7.00.
As for `Cc1ccc2scc(CC(=O)N3CCC3(C)C(=O)N(C)Cc3ccc(Cl)cc3)c2c1` (stereo not shown) [Compound 93, 1-[2-(5-Methyl-benzo[b]thiophen-3-yl)-acetyl]-2-methyl-azetidine-2-carboxylic acid (4-chloro-benzyl)-methyl-amide], the pIC50 on GPR43 [1] was less than 6.00.
The same measure, in the same setting: under `CN(Cc1ccc(Cl)cc1)C(=O)C1(C)CCN1C(=O)Cc1cccc(I)c1` (stereo not shown) [Compound 8, 1-[2-(3-iodo-phenyl)-acetyl]-2-methyl-azetidine-2-carboxylic acid (4-chloro-benzyl)-methyl-amide] stands 6.00 to 6.30.
As to `Cc1cc(C)cc(CC(=O)N2CCC2(C)C(=O)N(CCC(=O)O)Cc2ccc(Cl)cc2)c1` (stereo not shown) [Compound 65, 3-((4-chloro-benzyl)-{1-[2-(3,5-dimethyl-phenyl)-acetyl]-2-methyl-azetidine-2-carbonyl}-amino)-propionic acid], at GPR43 [1], the pIC50 was less than 6.00.
Turning to `Cc1cc(C)cc(CC(=O)N2CCC2(C)C(=O)N(CCCC(=O)O)Cc2ccc(Cl)cc2)c1` (stereo not shown) [Compound 64, 4-((4-Chloro-benzyl)-{1-[2-(3,5-dimethyl-phenyl)-acetyl]-2-methyl-azetidine-2-carbonyl}-amino)-butyric acid], the pIC50 on GPR43 [1] was 6.30 to 7.00.
Same read-out and setting: as for `Cc1cc(C)cc(CC(=O)N2CC[C@@]2(C)C(=O)N(CC(=O)O)Cc2ccc(Cl)cc2)c1` [Compound 81a, ((4-Chloro-benzyl)-{(S)-1-[2-(3,5-dimethyl-phenyl)-acetyl]-2-methyl-azetidine-2-carbonyl}-amino)-acetic acid], the figure is less than 6.00.
As for `CCOC(=O)CCCN(Cc1ccc2cn[nH]c2c1)C(=O)C1(C)CCN1C(=O)c1csc2ccccc12` (stereo not shown) [Compound 153, 4-[[1-(Benzo[b]thiophene-3-carbonyl)-2-methyl-azetidine-2-carbonyl]-(1H-indazol-6-ylmethyl)-amino]-butyric acid ethyl ester], at GPR43 [2], the pIC50 was 6.30 to 7.00.
In the case of `CCOC(=O)CCCN(Cc1ccc(C(F)(F)F)cc1)C(=O)C1(C)CCN1C(=O)Cc1csc2ccccc12` (stereo not shown) [Compound 142, 4-[[1-(2-Benzo[b]thiophen-3-yl-acetyl)-2-methyl-azetidine-2-carbonyl]-(4-trifluoromethyl-benzyl)-amino]-butyric acid ethyl ester], at GPR43 [2], the pIC50 was less than 6.00.
Still for that read-out and setting: under `CC1(C(=O)N(CCCC(=O)O)Cc2ccc3scnc3c2)CCN1C(=O)c1csc2ccccc12` (stereo not shown) [Compound 184, 4-{[1-(Benzo[b]thiophene-3-carbonyl)-2-methyl-azetidine-2-carbonyl]-benzothiazol-5-ylmethyl-amino}-butyric acid] stands 6.30 to 7.00; under `CC1(C(=O)N(CCCC(=O)O)Cc2ccc(C(F)(F)F)cc2)CCN1C(=O)Cc1coc2ccccc12` (stereo not shown) [Compound 160, 4-[[1-(2-Benzofuran-3-yl-acetyl)-2-methyl-azetidine-2-carbonyl]-(4-trifluoromethyl-benzyl)-amino]-butyric acid], 6.30 to 7.00; under `Cc1cccc(CC2(C(=O)N(CCCC(=O)O)Cc3cccc(Cl)c3)CCN2C(=O)c2csc3ccccc23)c1` (stereo not shown) [Compound 220, 4-(1-(benzo[b]thiophene-3-carbonyl)-N-(3-chlorobenzyl)-2-(3-methylbenzyl)azetidine-2-carboxamido)butanoic acid], 6.00 to 6.30.
